Test results: ChEMBL document CHEMBL5726728, “T-type calcium channel modulator and uses thereof” (2019)

Experiments:
[1] = target: Cannabinoid receptor 1 (Rattus norvegicus, UniProt P20272); experiment: (§1) As used herein, the term T-type calcium channel blocker refers to a compound that can modulate, in particular inhibit or reduce activation of T-type calcium channels. […] The term about refers to ±20%, typically ±10%, and often ±5% of the numeric value.
[2] = target: Cannabinoid receptor 2 (Homo sapiens, UniProt P34972); experiment: as §1
Chain of Cannabinoid receptor 2 (P34972 whole entry): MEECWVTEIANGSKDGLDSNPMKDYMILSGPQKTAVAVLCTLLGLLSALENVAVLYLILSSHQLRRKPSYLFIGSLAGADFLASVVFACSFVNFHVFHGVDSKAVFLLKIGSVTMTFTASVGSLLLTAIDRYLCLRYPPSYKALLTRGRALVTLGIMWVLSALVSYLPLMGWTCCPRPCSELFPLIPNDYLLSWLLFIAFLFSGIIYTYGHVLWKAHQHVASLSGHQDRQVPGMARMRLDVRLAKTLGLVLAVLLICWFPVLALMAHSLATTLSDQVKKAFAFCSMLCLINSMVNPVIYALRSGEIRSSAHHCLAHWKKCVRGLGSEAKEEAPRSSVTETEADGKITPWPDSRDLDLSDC

Chain of Cannabinoid receptor 1 (P20272 whole entry): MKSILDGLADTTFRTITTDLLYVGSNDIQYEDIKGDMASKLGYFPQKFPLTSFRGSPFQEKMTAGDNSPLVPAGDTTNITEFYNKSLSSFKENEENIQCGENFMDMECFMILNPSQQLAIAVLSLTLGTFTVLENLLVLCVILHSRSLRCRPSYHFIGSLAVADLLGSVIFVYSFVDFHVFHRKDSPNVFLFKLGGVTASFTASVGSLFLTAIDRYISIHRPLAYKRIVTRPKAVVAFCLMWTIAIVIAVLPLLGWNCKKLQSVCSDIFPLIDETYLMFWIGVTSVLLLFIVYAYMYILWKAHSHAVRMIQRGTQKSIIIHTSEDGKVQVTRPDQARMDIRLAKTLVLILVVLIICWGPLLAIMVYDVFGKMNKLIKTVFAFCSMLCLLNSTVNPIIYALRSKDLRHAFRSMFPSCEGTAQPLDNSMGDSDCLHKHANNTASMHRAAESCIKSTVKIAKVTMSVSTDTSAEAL

CCCCCn1c2ccccc2c2cc(C(=O)N3CCN(CC(=O)NC(C)(C)C)CC3)ccc21
Ki [1]: 0.015 µM
Ki [2]: 1.97 µM
